Source: patent US5010073A, “Use of liposomes as carriers for metalloporphyrins” (The Rockefeller University, priority 1990, dated 1991)
Like-named read-outs stand apart in the source and are kept apart here.

Assays:
bilirubin levels [1] = conditions: cited from earlier work
[2] = Toxicity of chromium porphyrin preparations; format: in vivo; conditions: aqueous: isotonic aqueous media at the same level as SnPP; liposomal: at effective dosage levels
bilirubin levels [3] = conditions: NEONATAL MONKEY; dose 24-185 umoles/kg; cited from earlier work
bilirubin levels [4] = conditions: cited from earlier work; remark: listed apart in the source
[5] = cited from earlier work
heme oxygenase [6] = assay: Inhibition of splenic and hepatic heme oxygenase after injection; format: in vivo, rat; conditions: single animal; for Heme Oxygenase activity Liver: saline 2.3 ± 0.6; for Heme Oxygenase activity Spleen: saline 9.0 ± 2.4
Protocol: Liver were perfused in situ with ice cold 0.9% NaCl and subsequently homogenized in 3 volumes of 0.1 M potassium phosphate buffer, pH 7.4, containing 0.25 M sucrose. […] Splenic microsomes were prepared in an identical manner. The cytosolic fraction obtained from the liver of control (saline-injected) animals served as a source of bilirubin reductase for subsequent analysis of heme oxygenase activity. Assays for heme oxygenase and metalloporphyrin concentration were performed on fresh microsomes whenever possible. Otherwise, microsomal fractions were kept at liquid nitrogen temperatures until the time of assay.
The activity of heme oxygenase in tissues was determined as described by Drummond and Kappas, supra. […] Standard settings for the two metalloporphyrins examined were: […]
The rats were sacrificed at varying times after injection for measurements of hepatic and splenic heme oxygenase activity.

heme oxygenase [7] = conditions: rats, cited from earlier work
heme oxygenase [8] = assay: Efficacy as heme oxygenase inhibitors (statements in words); conditions: at the same concentrations as SnPP
plasma bilirubin levels = assay: Lowering plasma bilirubin levels in newborn animals; format: in vivo

For chromium protoporphyrin [CrPP], the “BILIRUBIN/CO REDUCTION (percent)” value (bilirubin levels [1]; NEONATAL RAT, dose 10 umoles/kg (CrPP)) is listed as 32% and the toxicity [2] is listed as “exhibits some toxicity”.
For `C=Cc1c2[n-]c(c1C)/C=c1\[n-]/c(c(C)c1C=C)=C\c1[n-]c(c(CCC(=O)O)c1C)/C=c1\[n-]c(c(C)c1CCC(=O)O)=C2.[Sn+4]` [SnPP, tin protoporphyrin], the “BILIRUBIN/CO REDUCTION (percent)” value (bilirubin levels [3]) is listed as 91%, the “BILIRUBIN/CO REDUCTION (percent)” value (bilirubin levels [4]; ABO INCOMPATIBILITY-MAN, dose 0.5 umoles/kg) is listed as 21-32% and the “BILIRUBIN/CO REDUCTION (percent)” value (bilirubin levels [4]; BILIARY CIRRHOSIS-MAN, dose 0.25-2.0 umoles/kg) is listed as 7-23%. For the same compound, the “BILIRUBIN/CO REDUCTION (percent)” value (bilirubin levels [4]; GILBERT'S DISEASE-MAN, dose 0.5-1.8 umoles/kg) was 29-43%, the “BILIRUBIN/CO REDUCTION (percent)” value (bilirubin levels [4]; NORMAL ADULT-MAN, dose 1-2 umoles/kg) was 38-47% and the “CONCENTRATION OF SnPP IN ORGAN @ 24 HOURS, MICROSOMES” value ([5]; LIVER, rats, intravenous) was 146-284 pm/mg. protein. For the same compound, the “CONCENTRATION OF SnPP IN ORGAN @ 24 HOURS, MICROSOMES” value ([5]; SPLEEN, rats, intravenous) was 60 -90 pm/mg. protein, the “concentration of SnPP in the spleen relative to SnPP concentration in the liver” value ([5]; rat, in vivo, iv) was “one-fourth” and the concentration ([5]; read-out: CONCENTRATION OF SnPP IN ORGAN @ 24 HOURS, HOMOGENATE, SPLEEN, rats, intravenous, Mean ± SE for 3-4 rats) was 6.5 ± 0.6 µM. The “BILIRUBIN/CO REDUCTION (percent)” value (bilirubin levels [1]; BILE DUCT LIGATED RAT, dose 100 umoles/kg) was 62-70%, the “BILIRUBIN/CO REDUCTION (percent)” value (bilirubin levels [1]; NEONATAL GUNN RAT, dose 50 umoles/kg) was 19% and the “BILIRUBIN/CO REDUCTION (percent)” value (bilirubin levels [1]; NEONATAL RAT/HEMATOMA, dose 65 umoles/kg) was 25%. The “BILIRUBIN/CO REDUCTION (percent)” value (bilirubin levels [1]; NORMAL ADULT RAT, dose 10-50 umoles/kg) was 24-30%, the “Heme Oxygenase activity Liver” value (heme oxygenase [6]; 10 μm/kg IV, 16 hrs) was 0.6 nm bilirubin/hr/mg. protein and the “Heme Oxygenase activity Spleen” value (heme oxygenase [6]; 10 μm/kg IV, 16 hrs) was 3.6 nm bilirubin/hr/mg. protein. The “Heme Oxygenase activity Liver” value (heme oxygenase [6]; 10 μm/kg IV, 48 hrs) was 1.0 nm bilirubin/hr/mg. protein, the “Heme Oxygenase activity Spleen” value (heme oxygenase [6]; 10 μm/kg IV, 48 hrs) was 5.9 nm bilirubin/hr/mg. protein and the “Heme Oxygenase activity Liver” value (heme oxygenase [6]; 50 μm/kg IV, 16 hrs) was 0.4 nm bilirubin/hr/mg. protein. For the same compound, the “Heme Oxygenase activity Spleen” value (heme oxygenase [6]; 50 μm/kg IV, 16 hrs) was 5.3 nm bilirubin/hr/mg. protein, the “Heme Oxygenase activity Liver” value (heme oxygenase [6]; 50 μm/kg IV, 48 hrs) was 0.5 nm bilirubin/hr/mg. protein and the “Heme Oxygenase activity Spleen” value (heme oxygenase [6]; 50 μm/kg IV, 48 hrs) was 6.3 nm bilirubin/hr/mg. protein. The “HEME OXYGENASE ACTIVITY 24 HOURS AFTER TREATMENT” value (heme oxygenase [7]; KIDNEY, prior to treatment 1.8 ± 0.2) was 0.6 ± 0.1 nm bilirubin/hr/mg. protein, the “HEME OXYGENASE ACTIVITY 24 HOURS AFTER TREATMENT” value (heme oxygenase [7]; LIVER, prior to treatment 2.7 ± 0,3) was 0.3 ± 0.04 nm bilirubin/hr/mg. protein and the “HEME OXYGENASE ACTIVITY 24 HOURS AFTER TREATMENT” value (heme oxygenase [7]; SPLEEN, prior to treatment 12.4 ± 0.4) was 2.3 ± 0.3 nm bilirubin/hr/mg. protein. For the same compound, the “inhibition of splenic heme oxygenase” value (heme oxygenase [7]; following intravenous administration) was 50-75%.
In the case of `C=CC1=C(C)c2cc3[n-]c(cc4nc(cc5[n-]c(cc1n2)c(C)c5C=C)C(C)=C4CCC(=O)O)c(CCC(=O)O)c3C.[Zn+2]` [ZnPP, zinc protoporphyrin], the “BILIRUBIN/CO REDUCTION (percent)” value (bilirubin levels [1]; NORMAL ADULT RAT, dose 4-40 umoles/kg (ZnPP)) is listed as 20-30% and the “efficacy as heme oxygenase inhibitor relative to SnPP” value (heme oxygenase [8]) is listed as “relatively ineffective”.
For `C=CC1=C(C)c2cc3[n-]c(cc4[n-]c(cc5nc(cc1n2)C(C)=C5C=C)c(C)c4CCC(=O)[O-])c(CCC(=O)[O-])c3C.[H+].[H+].[Mn+2]` [MnPP, manganese protoporphyrin], the “lowering plasma bilirubin levels” value (plasma bilirubin levels) was “ineffective”.
